Experimental data reported in patent US8168430B2, “Method for preparation of hepatocyte using ES cell” (Nihon University, priority 2006, dated 2012).

Key:
TT2 ES cells [1] = experiment: FACS analysis of albumin producing cells; format: cell-based, mouse; settings: cultured 9 days; FACS with anti-albumin antibodies; control 22%
Description: The medium of the cultured cells was removed and washing was performed using PBS (−). After the cells were detached from the surface of the dish using 0.25% trypsin solution, 5 mL of a collagenase solution as described below was added to the cells and the cells were incubated at 37° C. for 30 minutes in order to digest the intercellular adhesion.
After digestion, cells were collected by centrifugation (1000 rpm, 4° C., 5 minutes) and fixed using 1 mL of ice-chilled 100% methanol. After fixing the cells, centrifugation (1500 rpm, 4° C., 5 minutes) was performed in order to remove the methanol. […] Then FITC-bonded sheep anti-rabbit IgG (MP Biomedicals Inc., Catalog# 55647, Lot# 02756) was added to the cells and the cells were allowed to stand for one hour while shielding against light. After standing for one hour, the cells were loaded by a FACS Canto™ (Becton Dickinson, Franklin Lakes, N.J.) wherein a FSC voltage was set to 80, a FITC voltage was set to 300 and a threshold was set to 1000. Thereafter BD DiVa Software was used for analysis. In FIGS. 12 and 13, the intensity of FITC is shown on the horizontal axis and FSC is shown on the vertical axis.
Then uPA, DFP-treated uPA or tPA was added to differentiation-inducing medium and cultured for 9 days. Cells were isolated using trypsin treatment and collagenase treatment, and FACS analysis was performed using anti-albumin antibodies.

TT2 ES cells [2] = experiment: Expression of differentiation markers (RT-PCR, western blot) in ES cells induced to differentiate from embryoid bodies; settings: for expression of the differentiation markers for hepatocyte (albumin, Cyp7a1 etc.): cultured 18 days in supplemented differentiation-inducing medium, RT-PCR and western blot

| Compound | albumin producing cells, share of the total number of cells (TT2 ES cells [1]) | expression of the differentiation markers for hepatocyte (albumin, Cyp7a1 etc.) (TT2 ES cells [2]) | induction of differentiation into hepatocytes (TT2 ES cells [2]; differentiation-inducing medium supplemented with the factor) |
| --- | --- | --- | --- |
| tPA: tissue-type PA which has the same substrate specificity as uPA | 27.2% | almost no change | did not induce differentiation into hepatocytes |
| N=C(N)c1ccc(N)cc1 [p-aminobenzamidine, reference compound] | – | suppressed | – |
